Molecular target: T1, Adenosine deaminase (Bos taurus, UniProt P56658)
T1 sequence (P56658 whole entry): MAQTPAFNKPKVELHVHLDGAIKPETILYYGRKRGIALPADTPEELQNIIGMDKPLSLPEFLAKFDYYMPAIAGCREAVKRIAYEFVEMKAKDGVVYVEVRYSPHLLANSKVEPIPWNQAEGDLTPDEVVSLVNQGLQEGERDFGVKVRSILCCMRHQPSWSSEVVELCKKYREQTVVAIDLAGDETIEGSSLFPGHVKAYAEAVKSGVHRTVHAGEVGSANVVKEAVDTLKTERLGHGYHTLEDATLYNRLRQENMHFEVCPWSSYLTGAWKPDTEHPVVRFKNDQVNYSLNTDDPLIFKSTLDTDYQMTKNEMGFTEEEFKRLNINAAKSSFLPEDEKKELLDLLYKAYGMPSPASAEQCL
Experiment: In vitro inhibition of adenosine deaminase isolated from calf intestine.

Row | Ki [µM] | Structure (SMILES)
1 | 24 | CCCCCCC(C(C)O)n1ccnn1 (stereo in doubt; 13e)
2 | > 400 | CCCCCCC(C(C)O)n1nccn1 (stereo not given)
3 | 26 | CCCCCCC(C(C)O)n1cnnc1 (stereo not given)
4 | > 1000 | CCCCCCC(C(C)O)n1cccn1 (stereo not given)
5 | 100 | CCCCCCC(C(C)O)n1ccnn1 (stereo in doubt; 13t)
6 | 0.16 | CCCCCCC(C(C)O)n1cnc2c(N)nccc21 (stereo not given)
7 | 9.6 | CCCCCCC(C(C)O)n1ncnn1 (stereo in doubt; 25e)
8 | > 1000 | CCCCCCC(C(C)O)n1ncnn1 (stereo in doubt; 25t)
9 | 0.01 | CCCCCCC(C(C)O)n1cnc2c(N)ccnc21 (stereo not given)

Row | Structure (SMILES) | Ki [µM]
10 | CCCCCCC(C(C)O)n1cncn1 (stereo in doubt; 18t) | 1
11 | CCCCCCC(C(C)O)n1cnnn1 (stereo in doubt; 23t) | 15
12 | CCCCCCC(C(C)O)n1ccnc1 (stereo in doubt; 6t) | 1.8
13 | CCCCCCC(C(C)O)n1cnnn1 (stereo in doubt; 23e) | 0.6
14 | CCCCCCC(C(C)O)n1cncn1 (stereo in doubt; 18e) | 0.3
15 | CCCCCCC(C(C)O)n1ccnc1 (stereo in doubt; 6e) | 0.7

— ChEMBL document CHEMBL1127841, “Adenosine deaminase inhibitors: synthesis and structure-activity relationships of 2-hydroxy-3-nonyl derivatives of azoles” (J Med Chem, 1994)
